# Results from patent EP0394553A2, “Use of fluorine containing pyridone carboxylic acid derivatives for preparing a medicament for the treatment of HIV infections” (DAIICHI PHARMACEUTICAL CO., LTD., priority 1989, dated 1990).
# Test system: HIV (LAV 1)
# Assay: microbe, parasite or virus in culture
# Protocol: Human T cell-derived, T4 antigen-positive CEM cells (provided by the Institut Pasteur, France) were used as host cells of HIV. Cell culture was carried out in a carbon dioxide-containing atmosphere in an incubator maintained at 37°C according to a conventional method [cf. […] The culture supernatant (5×10⁶ TCID₅₀/ml) obtained by subjecting CEM cells to HIV (LAV 1) infection and stored at -70°C was used as the HIV source.
# The medium for cell culture (10 ml) placed in a plastic culture flask (25 cm²) was inoculated with CEM cells at a cell density of 2.5×10⁵ cells/ml. After 3 days of incubation, the culture was transferred to a 15-ml centrifuge tube and subjected to centrifugation at 1,000 revolutions per minute for 5 minutes for sedimentation of cells and removal of the culture medium.
# The stock viral suspension was added to the host cells thus prepared to an MOI of 0.05 and the mixture was maintained at 37°C for 90 minutes with stirring at 30-minute intervals for viral adsorption. The medium was added to HIV-infected cells to a cell density of 5.0×10⁵ cells/ml to give an HIV-infected cell suspension.
# A mixture (1.0 ml) of the three constituents mentioned below was added to each well of a 24-well plastic culture plate and the test substance final concentration was adjusted to 10 mcg/ml, 5 mcg/ml, 2.5 mcg/ml or 1 mcg/ml. The "no addition" wells (0 mcg/ml) served as controls.
# After 4 days of incubation following viral infection, the cells in each well on the 24-well culture plate were suspended uniformly by pipetting and a 0.5-ml portion of the suspension was separated. A 2.0-ml portion of test substance-free fresh medium was added to the remaining 0.5-ml portion of the cell suspension, followed by incubation.
# Seven days after viral infection, pipetting was performed to give a uniform cell suspension in each well and a 0.5-ml portion of the suspension was separated.
# Incubation was continued and, 10 days after viral infection, a uniform cell suspension was produced in the same manner in each well and a 1.5-ml portion thereof was separated. A fresh 2.0-ml portion of the medium free of (or containing) the test substance was added to the well, followed by further incubation.
# Fifteen days after viral infection, the cells in each well were suspended uniformly in the same manner in the medium and a 2.0-ml portion of the suspension was separated. A fresh 2.0-ml portion of the medium free of (or containing) the test substance was added to the remaining 0.5 ml of the cell suspension and incubation was continued.
# Medium exchange was performed in the same manner 20 days and 25 days after viral infection.
# The cell suspensions collected 4 days, 7 days, 10 days, 20 days and 30 days after viral infection were tested for viable cell count and viable cell percentage by trypan blue staining. At the same time, viral antigen-positive cell percentage determination was carried out by immunofluorescence using an anti-HIV antiserum isolated from a healthy carrier of HIV.
# The numerical values given each is the mean for the respective two wells on the culture plate. The viable cell count is the total cell count minus the count of dead cells stained with trypan blue. The viable cell percentage is the percentage of viable cells among all the cells including dead cells. The viral antigen-positive cell percentage is the percentage of cells indicating antigen expression as found among all the cells including dead cells.
# [1] = 1 mcg/ml, 4-day addition, after 4 days
# [2] = 1 mcg/ml, 4-day addition, after 7 days
# [3] = 1 mcg/ml, 4-day addition, after 10 days
# [4] = 1 mcg/ml, 4-day addition, after 20 days
# [5] = 1 mcg/ml, continuous addition, after 4 days
# [6] = 1 mcg/ml, continuous addition, after 7 days
# [7] = 1 mcg/ml, continuous addition, after 10 days
# [8] = 2.5 mcg/ml, 4-day addition, after 4 days
# [9] = 2.5 mcg/ml, 4-day addition, after 7 days
# [10] = 2.5 mcg/ml, 4-day addition, after 10 days
# [11] = 2.5 mcg/ml, 4-day addition, after 20 days
# [12] = 2.5 mcg/ml, 4-day addition, after 30 days
# [13] = 2.5 mcg/ml, continuous addition, after 4 days
# [14] = 2.5 mcg/ml, continuous addition, after 7 days
# [15] = 2.5 mcg/ml, continuous addition, after 10 days
# [16] = 2.5 mcg/ml, continuous addition, after 20 days
# [17] = 2.5 mcg/ml, continuous addition, after 30 days
# [18] = 5 mcg/ml, 4-day addition, after 4 days
# [19] = 5 mcg/ml, 4-day addition, after 7 days
# [20] = 5 mcg/ml, 4-day addition, after 10 days
# [21] = 5 mcg/ml, 4-day addition, after 20 days
# [22] = 5 mcg/ml, 4-day addition, after 30 days
# [23] = 5 mcg/ml, continuous addition, after 4 days
# [24] = 5 mcg/ml, continuous addition, after 7 days
# [25] = 5 mcg/ml, continuous addition, after 10 days
# [26] = 5 mcg/ml, continuous addition, after 20 days
# [27] = 5 mcg/ml, continuous addition, after 30 days
# [28] = 10 mcg/ml, 4-day addition, after 4 days
structure (smiles),measurement,setting,value
"CC1COc2c(N3CCN(C)CC3)c(F)cc3c(=O)c(C(=O)O)cn1c23 (racemic) [OFLX, (±)-9-fluoro-3-methyl-10-(4-methyl-1-piperazinyl)-7-oxo-2,3-dihydro-7H-pyrido[1,2,3-de][1,4]benzoxazine-6-carboxylic acid]",Viable cell count,[1],260 × 10⁴ cells/ml
same,Viral antigen-positive cell percentage,[1],88%
same,Viable cell count,[2],43 × 10⁴ cells/ml
same,Viral antigen-positive cell percentage,[2],80%
same,Viable cell count,[3],13 × 10⁴ cells/ml
same,Viral antigen-positive cell percentage,[3],77%
same,Viable cell count,[4],34 × 10⁴ cells/ml
same,Viral antigen-positive cell percentage,[4],16%
same,Viable cell count,"1 mcg/ml, 4-day addition, after 30 days",10 × 10⁴ cells/ml
same,Viable cell count,[5],300 × 10⁴ cells/ml
same,Viral antigen-positive cell percentage,[5],82%
same,Viable cell count,[6],39 × 10⁴ cells/ml
same,Viral antigen-positive cell percentage,[6],78%
same,Viable cell count,[7],46 × 10⁴ cells/ml
same,Viral antigen-positive cell percentage,[7],85%
same,Viable cell count,"1 mcg/ml, continuous addition, after 20 days",15 × 10⁴ cells/ml
same,Viable cell count,"1 mcg/ml, continuous addition, after 30 days",11 × 10⁴ cells/ml
same,Viable cell count,[8],260 × 10⁴ cells/ml
same,Viral antigen-positive cell percentage,[8],80%
same,Viable cell count,[9],58 × 10⁴ cells/ml
same,Viral antigen-positive cell percentage,[9],67%
same,Viable cell count,[10],83 × 10⁴ cells/ml
same,Viral antigen-positive cell percentage,[10],49%
same,Viable cell count,[11],300 × 10⁴ cells/ml
same,Viral antigen-positive cell percentage,[11],4%
same,Viable cell count,[12],300 × 10⁴ cells/ml
same,Viral antigen-positive cell percentage,[12],6%
same,Viable cell count,[13],260 × 10⁴ cells/ml
same,Viral antigen-positive cell percentage,[13],83%
same,Viable cell count,[14],59 × 10⁴ cells/ml
same,Viral antigen-positive cell percentage,[14],62%
same,Viable cell count,[15],110 × 10⁴ cells/ml
same,Viral antigen-positive cell percentage,[15],38%
same,Viable cell count,[16],220 × 10⁴ cells/ml
same,Viral antigen-positive cell percentage,[16],17%
same,Viable cell count,[17],360 × 10⁴ cells/ml
same,Viral antigen-positive cell percentage,[17],10%
same,Viable cell count,[18],250 × 10⁴ cells/ml
same,Viral antigen-positive cell percentage,[18],82%
same,Viable cell count,[19],60 × 10⁴ cells/ml
same,Viral antigen-positive cell percentage,[19],50%
same,Viable cell count,[20],170 × 10⁴ cells/ml
same,Viral antigen-positive cell percentage,[20],33%
same,Viable cell count,[21],320 × 10⁴ cells/ml
same,Viral antigen-positive cell percentage,[21],5%
same,Viable cell count,[22],330 × 10⁴ cells/ml
same,Viral antigen-positive cell percentage,[22],4%
same,Viable cell count,[23],340 × 10⁴ cells/ml
same,Viral antigen-positive cell percentage,[23],75%
same,Viable cell count,[24],58 × 10⁴ cells/ml
same,Viral antigen-positive cell percentage,[24],76%
same,Viable cell count,[25],160 × 10⁴ cells/ml
same,Viral antigen-positive cell percentage,[25],40%
same,Viable cell count,[26],300 × 10⁴ cells/ml
same,Viral antigen-positive cell percentage,[26],11%
same,Viable cell count,[27],290 × 10⁴ cells/ml
same,Viral antigen-positive cell percentage,[27],2%
same,Viable cell count,[28],260 × 10⁴ cells/ml
same,Viral antigen-positive cell percentage,[28],74%
